This is an account of results in patent US12134640B2, “Polypeptides and medical uses thereof” (priority 2016, dated 2024).

No end group written: not given here.

In data set [1] the test system is RAW 264.7 macrophage cells. As to the kind of experiment: LPS stimulation of macrophages in vitro (nitrite, Griess reagent). In kind it is cell-based, murine. The note with it: LPS 10 ng/ml pre-incubated with peptide, 24 h. The procedure: Murine macrophage-like cells (RAW 264.7; ATCC) were seeded in 96-well plates at 3.5×10^5 cells/well in DMEM (without phenol red, PAA Laboratories) supplemented with 10% fetal calf serum and antibiotic-antimycotic (Invitrogen, Carlsbad, CA). After overnight incubation at 37° C., the cells were washed once with DMEM. LPS (10 ng/ml) was pre-incubated with the peptides for 20 min at room temperature and added to the cells. The cells were subsequently incubated for 24 h at 37° C. Griess reagent (Sigma, St. Louis, MO) was added to culture supernatant in 1:1 ratio followed by 15 min incubation in dark. The absorbance was then measured at 550 nm with a spectrophotometer. The cells with and without LPS stimulation were taken as positive and negative controls for LPS-induction. For the determination of NO production with peptides and LPS treatments, the assay was done in triplicate and the average values were considered for each set. Cells were grown at 37° C. and with 5% CO2 in fully humidified air.

For another data set, the system named is P. aeruginosa 15159. As to the kind of experiment: Invasive P. aeruginosa infection model, survival. In kind it is in vivo, Female BALB/c mice. The procedure:
Animal experiments were performed according to a protocol approved by the Local Ethics Committee at Lund University. Animals were housed under standard conditions of light and temperature and had free access to standard laboratory chow and water. P. aeruginosa 15159 bacteria were grown to mid-exponential phase (A620˜0.5), washed and diluted in PBS to 2×10^8 cfu/ml, and kept on ice until injection. Female BALB/c mice, 8 weeks old, were anesthetized with isoflurane and injected intraperitoneally with 100 μL of the bacterial solution, followed by injection of 100 μL SFV33 or GVR28 peptide (1 mg/mL) after 15 minutes, or with 100 μL PBS alone (control group).

For data set [2], the system named is S. pyogenes, S. aureus, E. coli and P. aeruginosa. As to the kind of experiment: Bactericidal assay (viable count), statements on the whole panel. In kind it is cell-based. The note with it: salt conditions (150 mM NaCl, pH 7.4). The procedure:
Bacteria were grown to mid-logarithmic phase (OD620≈0.4) in THB medium at 37° C., with 5% CO2. The bacterial solution was subsequently washed and adjusted to 2×10^7 cfu/ml in salt buffer (10 mM Tris-HCl, 150 mM NaCl supplemented with 5 mM glucose; pH 7.4) (both from Sigma-Aldrich). Various concentrations of peptides (0.3, 0.6, 3, 6, 30 and 60 μM) were incubated with bacteria in salt buffer with or without 20% human plasma. Bacteria incubated in only salt buffer with or without plasma were used as negative controls. Samples with LL-37 served as positive controls. The samples were incubated for 2 h at 37° C. with 5% CO2. To quantify the bactericidal activity, serial dilutions of the incubation mixtures were plated on THB agar plates, followed by incubation at 37° C. with 5% CO2 overnight, and the number of cfu were determined. Experiments were performed in triplicate. Hundred percent survival was defined as total survival of bacteria in the same buffer and under the same condition in the absence of peptides.

For data set [3], the system named is human monocytic THP-1 cells. As to the kind of experiment: Lactate dehydrogenase (LDH) assay. In kind it is cell-based. The note with it: at 50 μM. The procedure: The cytotoxicity experiments were performed as described previously (41). Briefly, human monocytic THP-1 cells (American Type Culture Collection (ATCC), Manassas, VA) were cultured into 96-well plates using Dulbecco's Modified Eagle's medium (DMEM) (PAA Laboratories) supplemented with 10% fetal calf serum. The medium was removed and the cells were subsequently washed with DMEM. Peptides (1, 5, 10, 20, 50 μM) diluted in DMEM were added in triplicates. The LDH based TOX-7 kit (Sigma-Aldrich) was used according to the manufacturer instructions. The amount of LDH release from dead cells was measured at 450 nm. As a positive control 2% Triton X-100 was used.

A short description of data set [4]: Membrane permeabilization assay (carboxyfluorescein efflux from liposomes). The note with it: 10 mM Tris pH 7.4, 37° C., 45 min. Here is the method: Dry lipid films of E. coli polar lipid extract were formed in round-bottom flask walls by dissolving lipids in chloroform, followed by evaporation under N2-flow and subsequently placed in vacuum overnight. Lipid films were re-suspended either by 30 min stirring (E. coli), at 55° C. in an aqueous solution of 100 mM 5(6)-carboxyfluorescein in 10 mM Tris (set to pH 7.4 at 37° C.). Suspensions were then vortexed followed by repeated extrusion through a 100 nm polycarbonate membrane mounted in a LipoFast mini-extruder (Avanti Polar Lipids) in order to reduce multilamellar structures and polydispersity. Un-trapped carboxyfluorescein was removed by gel filtration on Sephadex PD-10 columns (GE Healthcare, Little Chalfont, UK). Membrane permeability was measured by monitoring carboxyfluorescein efflux from the liposomes to the external low concentration environment, resulting in loss of self-quenching and an increased fluorescence signal with excitation and emission wavelengths of 492 and 517 nm, respectively. Fluorescence was measured with a Varioskan Flash Multimode Reader (Thermo Fisher Scientific, Waltham, MA) in black Nunc Delta Surface 96-well plate (Thermo Fisher Scientific, Roskilde, DK). […] The effects of each peptide concentration on the liposome systems were monitored for 45 min, at which point the initial leakage had largely subsided. […]

In another data set the test system is S. aureus. In kind it is cell-based, Staphylococcus aureus strain 111. The note with it: positive control, 3 μM LL-37. The procedure: (§1) Viable count assay Bacteria were grown to mid-logarithmic phase (OD620≈ 0.4) in THB-medium at 37° C. with 5% CO2. The bacterial solution was subsequently washed and adjusted to 2×10^9 cfu/ml in 10 mM Tris, pH 7.4, containing 5 mM glucose. S. pyogenes, S. aureus, E. coli or P. aeruginosa were then incubated with 2 μM of purified collagen type VI at 37° C. for 2 h. In some experiments S. pyogenes was incubated with recombinant collagen type VI fragments at various concentrations (0.125, 0.25, 0.5, 1.0 and 2.0 μM) for 2 h at 37° C. Bacteria incubated with Tris-HCl pH 7.4 buffer or 3 μM LL-37 (Innovagen, Lund, Sweden) were used as negative and positive controls respectively. To quantify the bactericidal activity, serial dilutions of the incubation mixtures were plated on blood agar plates, followed by incubation at 37° C. overnight, and the number of colony forming units (cfu) were determined. Hundred percent survival was defined as total survival of bacteria in the same buffer and under the same condition in the absence of collagen type VI or recombinant proteins.

The subject of a further data set is S. pyogenes. In kind it is cell-based, Streptococcus pyogenes strain AP1. The note with it: positive control, 3 μM LL-37. Here is the method:
as §1

The test system of another data set is P. aeruginosa. In kind it is cell-based, Pseudomonas aeruginosa PAO1. The note with it: positive control, 3 μM LL-37. The procedure:
as §1

For another data set, the system named is E. coli. In kind it is cell-based, Escherichia coli strain 1351. The note with it: positive control, 3 μM LL-37. The procedure: as §1

Consider “GVRPDGFAHIRDFVSRIVRRLNIGPSKV (GVR28 peptide) [peptide derived from VWA domain of collagen type VI α3-chain]”, for which, in data set [1], the LPS-induction of nitrite result is reported as “significantly suppressed the LPS-induction of nitrite”. In the data set on P. aeruginosa 15159 (experiment terminated after 29 hours), the “survival compared with PBS group” value is “prolonged survival”. In the data set with P. aeruginosa 15159 (mice infected i.p., single dose 100 μL peptide (1 mg/mL) 15 minutes after infection), the “time at which 50% mortalities were observed” value is 24 h. For the same compound, the “antibacterial activity (viable count)” value in data set [2] is on record as “somewhat reduced effects”.
With “SFVARNTFKRVRNGFLMRKVAVFFSNTPTRASP [SFV33]”, the “toxicity towards monocytes (LDH release)” value in data set [3] is on record as “exhibited toxicity”.
As to “FYLKTYRSQAPVLDAIRRLRLRGGS (FYL25 peptide) [peptide derived from VWA domain of collagen type VI α3-chain]”, the “membrane leakage (release of carboxyfluorescein)” value in [4] was “highest membrane leakage”.
Take `CC[C@H](C)[C@H](NC(=O)[C@H](CCCCN)NC(=O)[C@H](CCC(=O)O)NC(=O)[C@H](CCCCN)NC(=O)[C@H](CO)NC(=O)[C@H](CCCCN)NC(=O)[C@H](CCCNC(=N)N)NC(=O)[C@H](Cc1ccccc1)NC(=O)[C@H](Cc1ccccc1)NC(=O)[C@H](CC(=O)O)NC(=O)CNC(=O)[C@H](CC(C)C)NC(=O)[C@@H](N)CC(C)C)C(=O)NCC(=O)N[C@@H](CCCCN)C(=O)N[C@@H](CCC(=O)O)C(=O)N[C@@H](Cc1ccccc1)C(=O)N[C@@H](CCCCN)C(=O)N[C@@H](CCCNC(=N)N)C(=O)N[C@H](C(=O)N[C@H](C(=O)N[C@@H](CCC(N)=O)C(=O)N[C@@H](CCCNC(=N)N)C(=O)N[C@H](C(=O)N[C@@H](CCCCN)C(=O)N[C@@H](CC(=O)O)C(=O)N[C@@H](Cc1ccccc1)C(=O)N[C@@H](CC(C)C)C(=O)N[C@@H](CCCNC(=N)N)C(=O)N[C@@H](CC(N)=O)C(=O)N[C@@H](CC(C)C)C(=O)N[C@H](C(=O)N1CCC[C@H]1C(=O)N[C@@H](CCCNC(=N)N)C(=O)N[C@H](C(=O)N[C@@H](CCC(=O)O)C(=O)N[C@@H](CO)C(=O)O)[C@@H](C)O)C(C)C)[C@@H](C)CC)C(C)C)[C@@H](C)CC` [LL-37]: the killing with S. aureus, in the data set on S. pyogenes, in the data set on P. aeruginosa and with E. coli was approximately 100% in each case.
